Structures are written as SMILES.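 Step 1: Grow cells in 96-well plates. Step 2: Expose to compound for 48 hours at 5 concentrations. Step 3: Interpolate endpoints linearly; if unreached, use highest concentration. GI50 = concentration required for 50% inhibition of growth.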 Activity calls are given as the source filed them. No stated cut-off is given here; in the data, active = GI50 up to about 1.1 µM and inactive = higher.

Here are results for 18 molecules from ChEMBL document CHEMBL1201862, “PubChem BioAssay data set” (2004).

Test systems include KM-20L2; DLD-1; XF498; DMS-114; M19-MEL; SNB-78; HOP-18; RXF 631; LXFL 529.
Assay in all cases: growth of human tumour cells (NCI), 48 h

In the case of `COc1ccc(C(=O)NCCC2=CCCCC2)cc1`, the GI50 with KM-20L2, in the experiment with DLD-1, in the experiment on XF498, with DMS-114, in the experiment on M19-MEL and in the experiment with SNB-78 was > 100 µM (inactive) in each case. In the experiment on HOP-18, the GI50 was > 100 µM (inactive).
With `Cc1c(CCCl)c(Cl)n2c(nc3ccccc32)c1C#N`, the GI50 in the experiment with KM-20L2 is 0.641 µM (active); in the experiment with DLD-1, 1.12 µM (active); with RXF 631, 0.568 µM (active); with DMS-114, 1.13 µM (inactive); with M19-MEL, 4.21 µM (inactive); in the experiment on LXFL 529, 0.459 µM (active). The GI50 is 1.77 µM (inactive) in the experiment on SNB-78 and 1.51 µM (inactive) in the experiment on HOP-18.
Consider `O=C1/C(=C/c2ccc3c(c2)OCO3)SC2C=Nc3ccccc3N12` (stereo unspecified), for which the GI50 in the experiment on KM-20L2 is > 100 µM (inactive); in the experiment with DLD-1 it was > 100 µM (inactive); in the experiment with XF498, > 100 µM (inactive); with RXF 631, > 100 µM (inactive); in the experiment on DMS-114 it was 93.5 µM (inactive); with M19-MEL it was > 100 µM (inactive). In addition, the GI50 is > 100 µM (inactive) in the experiment with LXFL 529, 92.9 µM (inactive) with SNB-78 and > 100 µM (inactive) with HOP-18.
Turning to `[O-][S+]1CSCS1` (stereo unspecified), the GI50 is > 100 µM (inactive) in the experiment on KM-20L2; > 100 µM (inactive) in the experiment on DLD-1; > 100 µM (inactive) in the experiment with XF498; 85.9 µM (inactive) in the experiment on RXF 631; > 100 µM (inactive) in the experiment on DMS-114; > 100 µM (inactive) in the experiment with M19-MEL. For the same molecule, the GI50 is > 100 µM (inactive) in the experiment with LXFL 529, 91.8 µM (inactive) with SNB-78 and > 100 µM (inactive) in the experiment on HOP-18.
Regarding `CC1CC(C)C(=O)C(C(=O)CC2CC(=O)NC2=O)C1` (stereo unspecified), the GI50 in the experiment on KM-20L2 is > 100 µM (inactive); in the experiment with DLD-1 it was > 100 µM (inactive); in the experiment with XF498, > 100 µM (inactive); with RXF 631 it was 72.6 µM (inactive); in the experiment on DMS-114 it was > 100 µM (inactive); with M19-MEL, > 100 µM (inactive). The GI50 in the experiment with LXFL 529, with SNB-78 and with HOP-18 was > 100 µM (inactive) each time.
As to `O=C(O)/C=C\C(=O)c1ccc(Cl)cc1`, the GI50 in the experiment on KM-20L2 was 36.7 µM (inactive); in the experiment with DLD-1, 35.2 µM (inactive); with XF498, 27.7 µM (inactive); in the experiment with RXF 631, > 100 µM (inactive); with DMS-114, 21.4 µM (inactive); in the experiment with M19-MEL, 24.3 µM (inactive). Further, the GI50 is 21.8 µM (inactive) in the experiment with LXFL 529, 33.7 µM (inactive) with SNB-78 and > 69.2 µM (inactive) in the experiment on HOP-18.
As to `COc1ccc(C2=C[C@]3(O)CCCN3C[C@@H]2c2ccc(OC)c(OC)c2)cc1`, the GI50 in the experiment on KM-20L2, in the experiment with DLD-1, in the experiment with XF498, with LXFL 529, in the experiment with SNB-78 and in the experiment on HOP-18 was < 0.0001 µM (active) throughout.
In the case of `C=C=C(C(=O)OC)[S+]([O-])c1ccc([N+](=O)[O-])cc1[N+](=O)[O-]` (stereo unspecified), the GI50 was 26.5 µM (inactive) in the experiment with KM-20L2; 16.2 µM (inactive) with DLD-1; 39.1 µM (inactive) with XF498; 42 µM (inactive) in the experiment on RXF 631; 21 µM (inactive) in the experiment on DMS-114; 25.4 µM (inactive) with M19-MEL. The GI50 in the experiment with LXFL 529 is 16.8 µM (inactive); with HOP-18 it was 44.2 µM (inactive).
`COCOCCCCCO[Si](C)(C)C(C)(C)C`: the GI50 in the experiment on KM-20L2 was 22.8 µM (inactive); in the experiment with DLD-1, 31.6 µM (inactive); with XF498, 15.7 µM (inactive); in the experiment with RXF 631, 19.4 µM (inactive); in the experiment with DMS-114, 17.5 µM (inactive); in the experiment with M19-MEL, 28.7 µM (inactive). The GI50 in the experiment with LXFL 529 was 26.9 µM (inactive); in the experiment on SNB-78, 22.8 µM (inactive); in the experiment on HOP-18, 30.8 µM (inactive).
As for `O=C(c1nc2ccc(Cl)cc2[nH]c1=O)C(O)c1ccco1` (stereo unspecified), the GI50 in the experiment on KM-20L2 is 24.5 µM (inactive); in the experiment with DLD-1 it was > 100 µM (inactive); in the experiment with RXF 631, 6.04 µM (inactive); in the experiment with DMS-114, 4.91 µM (inactive); in the experiment with M19-MEL, > 100 µM (inactive); in the experiment on LXFL 529, 42.9 µM (inactive). In the experiment with HOP-18, the GI50 was > 100 µM (inactive).
As for `Cc1cc(NS(=O)(=O)c2ccc(Nc3c4ccccc4nc4c(C(=O)Nc5ccc(S(=O)(=O)N=C(N)N)cc5)ccc(Cl)c34)cc2)no1`, the GI50 in the experiment with KM-20L2 was 98.4 µM (inactive); with DLD-1 it was 47.3 µM (inactive); with XF498, 31.4 µM (inactive); in the experiment on DMS-114, 27.1 µM (inactive); in the experiment on M19-MEL, 39.8 µM (inactive); with LXFL 529, 31.3 µM (inactive). Also, the values for the GI50 in the experiment with SNB-78 and in the experiment with HOP-18 were 23.4 µM (inactive) and 16.4 µM (inactive), respectively.
Turning to `Cc1cc([N+](=O)[O-])c(S(=O)(=O)c2ccccc2)c([N+](=O)[O-])c1`, the GI50 with KM-20L2 is 17.9 µM (inactive); in the experiment with DLD-1, 4 µM (inactive); in the experiment on XF498, 4.35 µM (inactive); with RXF 631 it was 38.6 µM (inactive); in the experiment with DMS-114, 3.14 µM (inactive); in the experiment with M19-MEL, 11.7 µM (inactive). Besides, the GI50 is 3.66 µM (inactive) in the experiment on LXFL 529, 17.2 µM (inactive) in the experiment on SNB-78 and 16.1 µM (inactive) with HOP-18.
With `O=C(Nc1ccc(Br)cc1)C(=O)C(C(=O)c1ccccc1F)C1OC(=O)c2ccccc21` (stereo unspecified), the GI50 in the experiment on KM-20L2 was 40.1 µM (inactive); with DLD-1, 26.2 µM (inactive); with RXF 631, 34.8 µM (inactive); with DMS-114 it was 14 µM (inactive); in the experiment on M19-MEL it was 17.2 µM (inactive); in the experiment with LXFL 529, 23.1 µM (inactive). The GI50 in the experiment on SNB-78 is 27.8 µM (inactive); with HOP-18 it was 26.7 µM (inactive).
Regarding `COc1cc(Br)c(/C=N/N=C(\N)NO)cc1OC`, the GI50 in the experiment with KM-20L2 is 5.73 µM (inactive); in the experiment with DLD-1, 25.9 µM (inactive); in the experiment on XF498 it was 13.6 µM (inactive); with RXF 631, 11.6 µM (inactive); in the experiment on DMS-114, 12.4 µM (inactive); in the experiment on M19-MEL, 19.6 µM (inactive). In addition, the GI50 with LXFL 529 is 10.9 µM (inactive); in the experiment on SNB-78, 73.3 µM (inactive); in the experiment with HOP-18 it was 4.72 µM (inactive).
For `CN(C)NC1=C([N+](=O)[O-])C=NN(c2ccccc2)C1`, the GI50 in the experiment with KM-20L2 was 1.9 µM (inactive); with DLD-1, 1.83 µM (inactive); in the experiment with XF498 it was 2.36 µM (inactive); with RXF 631, 1.53 µM (inactive); with DMS-114 it was 1.84 µM (inactive); with M19-MEL, 1.81 µM (inactive). Moreover, the GI50 is 1.65 µM (inactive) in the experiment with LXFL 529, 2.17 µM (inactive) with SNB-78 and 1.81 µM (inactive) in the experiment with HOP-18.
For the molecule `N#Cc1c(-c2ccco2)cc(-c2ccc(N)cc2)[nH]c1=O`, the GI50 with KM-20L2, in the experiment on DLD-1, in the experiment with RXF 631, in the experiment with DMS-114, in the experiment with LXFL 529 and with HOP-18 was > 100 µM (inactive) in each case.
Turning to `CCCCCC(=O)Nc1nc(O)c2[nH]cnc2n1`, the GI50 with KM-20L2, with DLD-1, with XF498, in the experiment with DMS-114, in the experiment with M19-MEL and in the experiment on LXFL 529 was > 100 µM (inactive) in each case. Besides, the GI50 in the experiment with SNB-78 and with HOP-18 was > 100 µM (inactive) each time.
As to `CN(C)c1nc(N(C)C)nc(N(C)C)n1` [ALTRETAMINE], the GI50 in the experiment on KM-20L2 was > 150 µM (inactive); in the experiment on DLD-1 it was > 132 µM (inactive); with XF498, 109 µM (inactive); in the experiment on DMS-114, > 148 µM (inactive); in the experiment with M19-MEL it was > 144 µM (inactive); in the experiment with LXFL 529 it was > 150 µM (inactive). Besides, the GI50 with SNB-78 is > 150 µM (inactive); in the experiment on HOP-18, 53.3 µM (inactive).
